Laboratory results from patent US8765683B2, “T-140 peptide analogs having CXCR4 super-agonist activity for cancer therapy” (Biokine Therapeutics Ltd., priority 2006, dated 2014).
Bridge positions count the residues as written; N and C are the ends. Square brackets hold non-standard residues; d marks the D form. Peptide text beside a SMILES is read from it. * marks the point of attachment. 2Nal = N[C@@H](Cc1ccc2ccccc2c1)C(=O)O; Benzoyl(4-F) = O=C(c1ccc(F)cc1)*; Cit = NC(=O)NCCC[C@H](N)C(=O)O

Key:
U87 glioma cells = experiment: Survival and death of U87 glioma cells (Annexin V); format: cell-based
Method: U87 cells were treated with 4F-benzoyl-TN14003 and tested for their survival (FIG. 15A) and death (FIG. 15B).

NCI human MM cells = experiment: Proliferation and apoptosis (annexin) of NCI MM cells; format: cell-based; conditions: 4F-benzoyl-TN14003 0.4-40 μM
BM derived CD34+ cells = experiment: Survival of CD34+ cells in BM samples of MM patients; format: cell-based, human; conditions: 8 μM, 24 hr
ARH77 = experiment: Proliferation and apoptosis (annexin) of ARH77 MM cells; format: cell-based, human; conditions: 4F-benzoyl-TN14003 0.4-40 μM
[1] = test system: BM derived CD138+ MM cells; experiment: Survival and apoptosis of BM derived cells of MM patients; format: cell-based, human
HL-60 cells = experiment: Proliferation and apoptosis (Annexin V) of HL-60 cells; format: cell-based, human
U-87 = experiment: Proliferation of U-87 glioblastoma cells; format: cell-based
22Rv1 = experiment: Proliferation of 22Rv1 prostate carcinoma cells; format: cell-based
Jurkat cells = experiment: Migration of Jurkat cells in response to CXCL12; format: cell-based, human; conditions: CXCL12 50 ng/ml; peptide incubated with Proteinase K
Text: AMD3100 was purchased from Sigma, Israel.

PC3 cells [2] = experiment: Proliferation of PC3 prostate tumor cells; format: cell-based
Method: (§1) Next, the effect of the CXCR4 modulators on PC3 and PC3-CXCR4.5 prostate tumor cells was tested. […] The proliferation induced by 4F-benzoyl-TN14003 was dose-dependent (FIG. 3B).

NB4 cells = experiment: Proliferation of NB4 AML cells; format: cell-based, human
SKBR3 = experiment: Proliferation of SKBR3 breast carcinoma cells; format: cell-based
[3] = test system: human primary keratinocytes; experiment: Proliferation and survival of keratinocytes; format: cell-based; conditions: AMD-3100 20 μM; 4F-benzoyl-TN14003 4-20 μM
Method: (§2) The effect of CXCR4 antagonists on the survival of freshly isolated normal CD4^+ T cells, CD34^+ stem cells and keratinocytes was examined. The proliferation and survival of keratinocytes was not inhibited by CXCR4 antagonists AMD-3100 (20 μM) and 4F-benzoyl-TN14003 (4-20 μM) or the natural ligand CXCL12 (FIG. 2C). The proliferation and survival of CD4^+ T cells was not inhibited by CXCR4 antagonists AMD-3100 (20 μM).

PC3-CXCR4.5 cells [4] = experiment: Proliferation of PC3-CXCR4.5 prostate tumor cells; format: cell-based
Method: as §1

U266 = experiment: Proliferation and apoptosis (annexin) of U266 MM cells; format: cell-based, human; conditions: 4F-benzoyl-TN14003 0.4-40 μM
K562 cells = experiment: Proliferation and apoptosis (Annexin V) of CML K562 cells; format: cell-based, human; conditions: K562 (low CXCR4); 4F-benzoyl-TN14003 4-20 μM
Text: (§3) The proliferation and survival of the CML K562 cells or K562 cells that over-express CXCR4 (indicated “CXCR4 high” or “K562-CXCR4”) was first studied.

human CD4+ T cells = experiment: Proliferation and survival of CD4+ T cells; format: cell-based; conditions: AMD-3100 20 μM; 4F-benzoyl-TN14003 4-20 μM
Method: as §2

PC3-CXCR4.5 cells [5] = experiment: MIP3α secretion by PC3-CXCR4.5 cells (ELISA); format: cell-based
Method: (§4) In this example, regulation of the chemokine MIP3α (macrophage inflammatory protein 3α) was examined. […] In FIG. 1B, PC3 (left panel) and PC3-CXCR4.5 (right panel) cells were stimulated with the indicated concentrations of CXCL12 for 48 hours and MIP3α secretion was assessed by ELISA. The results represent the average of triplicates±STDEV.
(§5) The effects of the CXCR4 antagonist AMD3100 and of 4F-benzoyl-TN14003 (4FB-TN14003), hitherto known as a CXCR4 antagonist, on MIP3α secretion were further tested. […] In FIG. 1C, CXCR4 signaling in PC3 (left panel) and PC3-CXCR4.5 (right panel) cells was inhibited with anti-CXCL12 antibodies (αCXCL12) and Pertussis toxin (PTX) treatments alone or in combination with CXCL12, as indicated. Secretion of MIP3α was assessed by ELISA. The results represent the average of triplicates±STDEV.

human NB4 leukemic cells = experiment: NB4 leukemic xenograft model; format: in vivo, nude mice
Method: Acute promyelocytic leukemia (APL)-derived NB4 cell is extensively used as an in vitro and in vivo model system for studying human leukemia. To investigate the therapeutic anti-tumor potential of the CXCR4 antagonist 4F-benzoyl-TN14003 against human leukemic cells, 10×10^6 NB4 cells were injected subcutaneously (s.c) into immunodeficient nude mice (n=5). After 14 days, tumors were established at the size of 0.4 cm^2, and mice were divided into 4F-benzoyl-TN14003-treated (8 mg/Kg, open squares) and PBS-treated (control, full diamonds) groups. The 4F-benzoyl-TN14003 drug solution was administered intraperitoneal (i.p) each day for 5 days, followed by 2 days without drug, and then 4 additional daily injections (total of 9 injections, FIG. 16).
To further test the effect of 4F-benzoyl-TN14003 against human leukemic cells, 5×10^6 NB4 cells were injected subcutaneously (s.c) into immunodeficient nude mice (n=5). After 14 days, tumors were very small, at the size of 0.02 cm^2, and mice were divided into 4F-benzoyl-TN14003-treated (open squares) and PBS-treated (control, full diamonds) groups. The 4F-benzoyl-TN14003 drug solution was administered subcutaneously (8 mg/Kg) each day for 4 days (total of 4 injections, FIG. 17A). On day 20, all control mice developed tumors (0.49±0.1 cm^2), whereas in the treated mouse group, only 1 mouse developed a small tumor.
On day 31, all control mice developed big tumors in size (FIG. 17A) and weight (FIG. 17B), whereas in the treated group, 4/5 mice developed smaller tumors in size and weight.

K562-CXCR4 = experiment: Proliferation and apoptosis (Annexin V) of K562 cells over-expressing CXCR4; format: cell-based, human; conditions: K562 high CXCR4; 4F-benzoyl-TN14003 4-20 μM
Text: as §3

K562L cells = experiment: K562L (luciferase) CML model, CCCD camera; format: in vivo, NOD/SCID mice
Method: In order to monitor the progression and localization of leukemic cells in vivo, the human CML tumor cell lines K562 (K562L) was stably transduced with a retrovirus carrying the luciferase gene. This cell line was injected IP into NOD/SCID mice (2.5×10^5, 5×10^5, 10^6, 2×10^6 per mouse; FIGS. 18 A-D, respectively) that were pretreated with a sub-lethal dose of radiation in order to diminish any natural killer cell activity and enhance acceptance of the tumor cells. Twenty-four hr after injection of the cells, the light generated internally by the luciferase expressed in the tumor cells and then transmitted through the animal's tissues was monitored externally using a cooled charge-coupled device camera (CCCD). The substrate luciferin was provided exogenously via IP injection. […] Quantitation was achieved by integrating the signal intensity using the Metaview software.
Two therapeutic approaches were studied using this model. […] In addition, the effect of 4F-benzoyl-TN14003 on the growth of cells in vivo was investigated.
Further, the effect of 4F-benzoyl-TN14003 on K562L tumor development was studied. 4F-benzoyl-TN14003 was injected i.p into NOD/SCID mice in the amount of 4 mg/Kg per mouse/per injection. The first injection of 4F-benzoyl-TN14003 was given immediately after the injection of K562-luc cells in an opposite route of injection on the peritoneum. Further injections of 4F-benzoyl-TN14003 were given every three days. Mice were monitored under the CCCD camera, 24 hr after each injection at serial time points, every three days.
4F-benzoyl-TN14003 was injected i.p into NOD/SCID mice in the amount of 2 mg/Kg whereas AMD-3100 was injected 4 mg/Kg per mouse/per injection. The first injection was given 2 days after the injection of K562-luc cells. Further injections were given on days 5, 7 and 11. Mice (n=3) were monitored under the CCCD camera on day 17 after injection of cells.

[6] = test system: human CD34+ hematopoietic stem cells; conditions: AMD-3100 20 μM
PC3 cells [7] = experiment: MIP3α secretion by PC3 cells (ELISA); format: cell-based
Method: as §4, §5

N=C(N)NCCC[C@H](NC(=O)[C@@H]1CSSC[C@H](NC(=O)[C@H](Cc2ccc3ccccc3c2)NC(=O)[C@H](CCCNC(=N)N)NC(=O)[C@H](CCCNC(=N)N)NC(=O)c2ccc(F)cc2)C(=O)N[C@@H](Cc2ccc(O)cc2)C(=O)N[C@@H](CCCNC(N)=O)C(=O)N[C@@H](CCCCN)C(=O)N[C@H](CCCCN)C(=O)N2CCC[C@H]2C(=O)N[C@@H](Cc2ccc(O)cc2)C(=O)N[C@@H](CCCNC(=N)N)C(=O)N[C@@H](CCCNC(N)=O)C(=O)N1)C(N)=O [4F-benzoyl-TN14003, 4F-benzoyl-Arg-Arg-Nal-Cys-Tyr-Cit-Lys-DLys-Pro-Tyr-Arg-Cit-Cys-Arg-NH2] ({Benzoyl(4-F)}-RR[2Nal]CY[Cit]K[dK]PYR[Cit]CR-NH2; disulfide 4-13)
tumor cell death of glioma cells (U87 glioma cells): induce tumor cell death
apoptotic cell death (annexin assay) (NCI human MM cells): stimulated apoptotic cell death
growth (NCI human MM cells): inhibited the growth
percentage of CD34+ cells (BM derived CD34+ cells): remained unaffected
apoptotic cell death (annexin assay) (ARH77): stimulated apoptotic cell death
growth (ARH77): inhibited the growth
apoptosis of CD138+ MM cells ([1]; 8 μM, 24 hr): induced apoptosis
sensitivity of normal BM samples or BM samples with low percentage of MM cells ([1]; freshly isolated BM cells): not sensitive to treatment
sensitivity of BM derived samples with high percentage of MM ([1]; freshly isolated BM cells of MM patients): sensitive to treatment
apoptotic cell death (Annexin V assay) (HL-60 cells; 4F-benzoyl-TN14003 4-20 μM): stimulate apoptotic cell death
growth (HL-60 cells; 4F-benzoyl-TN14003 4-20 μM): inhibit the growth
proliferation (U-87): either stimulated or not affected
proliferation (22Rv1): either stimulated or not affected
activity on migration of Jurkat cells in response to CXCL12 after treatment of the peptide with proteinease K (Jurkat cells): abolished the activity of the peptide
proliferation (PC3 cells [2]): induced the proliferation of prostate cancer cells
sensitivity of NB4 cells (inhibitory effect) (NB4 cells; compared with HL-60): less sensitive
proliferation (SKBR3): either stimulated or not affected
proliferation and survival of keratinocytes [3]: not inhibited
proliferation (PC3-CXCR4.5 cells [4]): induced the proliferation of prostate cancer cells
apoptotic cell death (annexin assay) (U266): stimulated apoptotic cell death
growth (U266): inhibited the growth
apoptotic cell death (Annexin V assay) (K562 cells): stimulated apoptotic cell death
growth (K562 cells): inhibited the growth
proliferation and survival of CD4+ T cells (human CD4+ T cells): induced T cell proliferation
MIP3α secretion (PC3-CXCR4.5 cells [5]; ELISA): induced in both cell lines MIP3α secretion in an agonist manner
mice that developed smaller tumors in size and weight on day 31 (human NB4 leukemic cells; 8 mg/Kg s.c. each day for 4 days): 4/5
mice that developed a tumor on day 20 (human NB4 leukemic cells; 8 mg/Kg s.c. each day for 4 days, n=5, all control mice developed tumors): 1
tumor growth (human NB4 leukemic cells; established tumors 0.4 cm^2, 8 mg/Kg i.p., 9 injections): tumor growth was arrested
apoptotic cell death (Annexin V assay) (K562-CXCR4): stimulated apoptotic cell death
growth (K562-CXCR4): inhibited the growth
inhibition in K562L tumor development (K562L cells; 2 mg/Kg i.p. days 2, 5, 7, 11, day 17, FIG. 21): > 90%
inhibition in K562L tumor development over time (K562L cells; 4 mg/Kg i.p. every three days, FIG. 20): 50%

c1cc(CN2CCCNCCNCCCNCC2)ccc1CN1CCCNCCNCCCNCC1 [AMD-3100, reference compound]
effect of pretreatment with AMD-3100 on the effect of 4F-benzoyl-TN14003 (HL-60 cells; AMD-3100 50 μM pretreatment): abolished the effect of 4F-benzoyl-TN14003
CD34+ stem cell numbers [6]: did not affect cell numbers
proliferation (U-87): either stimulated or not affected
proliferation (22Rv1): either stimulated or not affected
proliferation (PC3 cells [2]): induced the proliferation of prostate cancer cells
effect of pretreatment with AMD-3100 on the inhibitory effect of 4F-benzoyl-TN14003 (NB4 cells; NB4 cells): abolished
proliferation (SKBR3): either stimulated or not affected
proliferation and survival of keratinocytes [3]: not inhibited
proliferation (PC3-CXCR4.5 cells [4]): induced the proliferation of prostate cancer cells
proliferation and survival of CD4+ T cells (human CD4+ T cells): not inhibited

Cc1ccc(NC(=O)c2ccc(CN3CCN(C)CC3)cc2)cc1Nc1nccc(-c2cccnc2)n1 [STI571]
tumor development of K562L cells (K562L cells; 40 mg/Kg IP, FIG. 20): inhibit tumor development
signal intensities over time (K562L cells; 40 mg/Kg, FIG. 19): significant reduction in signal intensities

CXCL12: chemokine, CXCR4's only natural ligand
CD34+ stem cell numbers [6]: did not affect cell numbers
proliferation (U-87): either stimulated or not affected
proliferation (22Rv1): either stimulated or not affected
proliferation (PC3 cells [2]): induced the proliferation of prostate cancer cells
proliferation (SKBR3): either stimulated or not affected
proliferation and survival of keratinocytes [3]: not inhibited
proliferation (PC3-CXCR4.5 cells [4]): induced the proliferation of prostate cancer cells
proliferation and survival of CD4+ T cells (human CD4+ T cells): induced T cell proliferation

Pertussis toxin
MIP3α secretion (PC3 cells [7]): effectively inhibited the secretion of MIP3α
MIP3α secretion (PC3-CXCR4.5 cells [5]; ELISA): secretion of MIP3α was decreased
MIP3α secretion (PC3-CXCR4.5 cells [5]; PTX in combination with CXCL12): did not demonstrate an inhibitory effect
